Broadly, the IC50 is the concentration that gives 50% inhibition.

In brackets after ≈: the same amount, converted by molar mass. Read-outs that look alike come from different tables or passages of the source.

The subject of this assay is U87MG Human Glioblastoma (ATCC # HTB-14). The experiment in a line: 3H thymidine incorporation in U87MG human glioblastoma cells. The format is cell-based. The conditions noted are these: 48 hours incubation with compound, 3H thymidine for the last 5 hours. As for the experimental part:
U87MG Human Glioblastoma (ATCC # HTB-14)
3H Thymidine Incorporation Protocol
• Growth Medium: BRL Minimum Essential Medium with Earle Salts (500 ml) + 5mLBRL MEM Non-Essential Amino Acids (10mM) +5 mLBRL Penicillin-Streptomycin (10000u/ml,10000ug/ml) +5mLBRL Na Pyruvate Solution (100mM) +5mLBRL L-Glutamine 200mM +50mLBRL Fetal Bovine Serum (Qualified) • Assay: • 1. Cells were trypsinized and plated at a concentration of 10^4 cells/well in a final volume of 200 µl growth medium in 96-well flat bottom plates and allowed to adhere for 24 hours at 37°C. • 2. The media was removed by aspiration with care to not disturb the cell monolayer. 200 µl of fresh growth media was added per well, allowing enough wells for samples to be run in triplicate. Compounds were added in 10 µl PBS solutions and incubated for another 48 hours at 37°C. • 3. During the last 5 hours of incubation, plates were labeled with 1µCi 3H thymidine per well. (NEN thymidine, catalog # NET-027, 6.7 Ci/mmole). The 1µCi was added in 10 µl of PBS (on the day of harvest.). The plates were returned to the incubator for the last 5 hours. • 4. The radioactive media was removed by aspiration, with care not to disturb the cell monolayer. 50 µl of BRL 10X Trypsin was added to each well, followed by incubation at 37°C for 10 minutes or until the monolayer was loosened from the well bottom. […] Mats were counted in a Wallac Betaplate counter.

As to `CO[C@H]1C[C@@H]2CC[C@@H](C)[C@@](O)(O2)C(=O)C(=O)N2CCCC[C@H]2C(=O)O[C@H]([C@H](C)C[C@@H]2CC[C@@H](O)[C@H](OC)C2)CC(=O)[C@H](C)/C=C(\C)[C@@H](O)[C@@H](OC)C(=O)[C@H](C)C[C@H](C)/C=C/C=C/C=C/1C` [Rapamycin], the IC50 (Homo sapiens, U-87 MG, read-out: IC50) worked out at 0.5 ng/mL (≈ 0.547 nM).

Regarding `CO[C@H]1C[C@@H]2CC[C@@H](C)[C@@](O)(O2)C(=O)C(=O)N2CCCC[C@H]2C(=O)O[C@H]([C@H](C)C[C@@H]2CC[C@@H](OCCO)[C@H](OC)C2)CC(=O)[C@H](C)/C=C(\C)[C@@H](O)[C@@H](OC)C(=O)[C@H](C)C[C@H](C)/C=C/C=C/C=C/1C` [SDZ-RAD, 40-O-(2-hydroxy)ethyl-rapamycin], the 50% inhibitory concentration (IC50) was 2.0 ng/mL (≈ 2.09 nM).

The record behind these values is patent EP1210350B1, “WATER SOLUBLE SDZ-RAD ESTERS” (Wyeth, priority 1999, dated 2001).
